# Earlier results in publication PMC9329312, “Decoding kinase-adverse event associations for small molecule kinase inhibitors” (Nature Communications, 2022).
# Where two headings read alike, the source gives them in different places.
# Conditions: ref FAERS
compound,measurement,setting,value
CCOc1cc2ncc(C#N)c(Nc3ccc(OCc4ccccn4)c(Cl)c3)c2cc1NC(=O)/C=C/CN(C)C [neratinib],"Pyrexia, % of Cases",,1.4%
same,"Quality of life decreased, % of Cases",,0.075%
same,"Radiation injury, % of Cases",,0.075%
same,"Rash erythematous, % of Cases",,0.3%
same,"Rash macular, % of Cases",,0.075%
same,"Rash papular, % of Cases",,0.075%
same,"Rash pruritic, % of Cases",,0.3%
same,"Rash pustular, % of Cases",,0.225%
same,"Rash vesicular, % of Cases",,0.075%
same,"Rash, % of Cases",,5.0%
same,"Raynaud's phenomenon, % of Cases",,0.075%
same,"Recall phenomenon, % of Cases",,0.075%
same,"Rectal haemorrhage, % of Cases",,0.5%
same,"Recurrent cancer, % of Cases",,0.075%
same,"Red blood cell count decreased, % of Cases",,0.225%
same,"Red blood cell sedimentation rate increased, % of Cases",,0.075%
same,"Reflux laryngitis, % of Cases",,0.15%
same,"Refraction disorder, % of Cases",,0.075%
same,"Renal disorder, % of Cases",,0.45%
same,"Renal failure, % of Cases",,0.6%
same,"Renal function test abnormal, % of Cases",,0.15%
same,"Renal impairment, % of Cases",,0.8%
same,"Renal mass, % of Cases",,0.075%
same,"Respiratory arrest, % of Cases",,0.075%
same,"Respiratory failure, % of Cases",,0.15%
same,"Restless legs syndrome, % of Cases",,0.075%
same,"Retching, % of Cases",,0.3%
same,"Retinal artery occlusion, % of Cases",,0.075%
same,"Retinal tear, % of Cases",,0.075%
same,"Rhinorrhoea, % of Cases",,0.75%
same,"Road traffic accident, % of Cases",,0.075%
same,"Rubber sensitivity, % of Cases",,0.075%
same,"Saliva altered, % of Cases",,0.075%
same,"Salivary gland cancer, % of Cases",,0.15%
same,"Salpingectomy, % of Cases",,0.075%
same,"Salpingo-oophorectomy bilateral, % of Cases",,0.075%
same,"Scab, % of Cases",,0.075%
same,"Seasonal allergy, % of Cases",,0.075%
same,"Seizure, % of Cases",,0.225%
same,"Sensation of foreign body, % of Cases",,0.15%
same,"Seroma, % of Cases",,0.075%
same,"Sinus disorder, % of Cases",,0.075%
same,"Sinus headache, % of Cases",,0.075%
same,"Sinus tachycardia, % of Cases",,0.075%
same,"Sinusitis, % of Cases",,0.15%
same,"Sjogren's syndrome, % of Cases",,0.075%
same,"Skin atrophy, % of Cases",,0.075%
same,"Skin burning sensation, % of Cases",,0.075%
same,"Skin discolouration, % of Cases",,0.225%
same,"Skin disorder, % of Cases",,0.075%
same,"Skin erosion, % of Cases",,0.075%
same,"Skin exfoliation, % of Cases",,0.8%
same,"Skin fissures, % of Cases",,0.9%
same,"Skin haemorrhage, % of Cases",,0.075%
same,"Skin irritation, % of Cases",,0.075%
same,"Skin odour abnormal, % of Cases",,0.075%
same,"Skin reaction, % of Cases",,0.075%
same,"Skin ulcer, % of Cases",,0.075%
same,"Sleep disorder, % of Cases",,0.15%
same,"Slow speech, % of Cases",,0.075%
same,"Sluggishness, % of Cases",,0.075%
same,"Small intestine adenocarcinoma, % of Cases",,0.075%
same,"Sneezing, % of Cases",,0.225%
same,"Snoring, % of Cases",,0.075%
same,"Somnolence, % of Cases",,1.5%
same,"Spinal pain, % of Cases",,0.075%
same,"Sputum retention, % of Cases",,0.075%
same,"Staphylococcal infection, % of Cases",,0.075%
same,"Stomatitis, % of Cases",,2.0%
same,"Stress fracture, % of Cases",,0.075%
same,"Stress, % of Cases",,0.3%
same,"Subclavian vein thrombosis, % of Cases",,0.075%
same,"Sunburn, % of Cases",,0.075%
same,"Surgery, % of Cases",,0.6%
same,"Swelling face, % of Cases",,0.225%
same,"Swelling, % of Cases",,0.15%
same,"Swollen tongue, % of Cases",,0.15%
same,"Syncope, % of Cases",,0.15%
same,"Tachycardia, % of Cases",,0.225%
same,"Taste disorder, % of Cases",,1.2%
same,"Temporomandibular joint syndrome, % of Cases",,0.075%
same,"Tenderness, % of Cases",,0.075%
same,"Tension headache, % of Cases",,0.075%
same,"Therapeutic product ineffective for unapproved indication, % of Cases",,0.075%
same,"Therapy cessation, % of Cases",,0.375%
same,"Therapy change, % of Cases",,0.225%
same,"Therapy interrupted, % of Cases",,0.15%
same,"Thirst, % of Cases",,0.375%
same,"Throat irritation, % of Cases",,0.075%
same,"Throat tightness, % of Cases",,0.075%
same,"Thrombocytopenia, % of Cases",,0.075%
same,"Thrombosis, % of Cases",,0.225%
same,"Thyroid cancer, % of Cases",,0.075%
same,"Thyroid mass, % of Cases",,0.075%
same,"Tongue discolouration, % of Cases",,0.075%
same,"Tongue discomfort, % of Cases",,0.075%
same,"Tongue erythema, % of Cases",,0.15%
same,"Tooth extraction, % of Cases",,0.075%
same,"Tooth fracture, % of Cases",,0.075%
same,"Tooth injury, % of Cases",,0.075%
same,"Toothache, % of Cases",,0.15%
same,"Toxicity to various agents, % of Cases",,0.075%
same,"Tracheal disorder, % of Cases",,0.075%
same,"Transaminases increased, % of Cases",,0.075%
same,"Transient ischaemic attack, % of Cases",,0.075%
same,"Transitional cell carcinoma metastatic, % of Cases",,0.075%
same,"Treatment noncompliance, % of Cases",,0.075%
same,"Tremor, % of Cases",,0.375%
same,"Trichorrhexis, % of Cases",,0.075%
same,"Tumour flare, % of Cases",,0.075%
same,"Tumour marker increased, % of Cases",,0.075%
same,"Tumour pain, % of Cases",,0.075%
same,"Tumour ulceration, % of Cases",,0.075%
same,"Underdose, % of Cases",,2.6%
same,"Upper limb fracture, % of Cases",,0.075%
same,"Upper respiratory tract infection, % of Cases",,0.375%
same,"Upper-airway cough syndrome, % of Cases",,0.075%
same,"Urinary retention, % of Cases",,0.075%
same,"Urinary tract discomfort, % of Cases",,0.075%
same,"Urinary tract infection, % of Cases",,2.1%
same,"Urine analysis abnormal, % of Cases",,0.075%
same,"Urine odour abnormal, % of Cases",,0.075%
same,"Urticaria, % of Cases",,0.375%
same,"Uterine cancer, % of Cases",,0.075%
same,"Uterine leiomyoma, % of Cases",,0.075%
same,"Vaginal discharge, % of Cases",,0.075%
same,"Vaginal haemorrhage, % of Cases",,0.225%
same,"Venous pressure jugular increased, % of Cases",,0.075%
same,"Vertigo positional, % of Cases",,0.075%
same,"Vertigo, % of Cases",,0.075%
same,"Viral infection, % of Cases",,0.15%
same,"Vision blurred, % of Cases",,0.375%
same,"Visual impairment, % of Cases",,0.225%
same,"Vitamin D decreased, % of Cases",,0.075%
same,"Vitiligo, % of Cases",,0.075%
same,"Vitreous floaters, % of Cases",,0.075%
same,"Volume blood decreased, % of Cases",,0.075%
same,"Vomiting projectile, % of Cases",,0.075%
same,"Vomiting, % of Cases",,13.8%
same,"Vulvovaginal burning sensation, % of Cases",,0.075%
same,"Vulvovaginal dryness, % of Cases",,0.075%
same,"Vulvovaginal pain, % of Cases",,0.075%
same,"Vulvovaginal pruritus, % of Cases",,0.15%
same,"Weight decreased, % of Cases",,4.9%
same,"Weight fluctuation, % of Cases",,0.075%
same,"Weight increased, % of Cases",,0.3%
same,"White blood cell count decreased, % of Cases",,0.7%
same,"White blood cell count increased, % of Cases",,0.15%
same,"Wound haemorrhage, % of Cases",,0.075%
same,"Wound, % of Cases",,0.075%
same,"Wrist fracture, % of Cases",,0.075%
same,"Wrong technique in product usage process, % of Cases",,0.075%
same,"Xeroderma, % of Cases",,0.075%
same,"Abdominal discomfort, % of Cases",listed as Neratinib,4.80%
same,"Abdominal pain upper, % of Cases",listed as Neratinib,6.00%
same,"Abdominal pain, % of Cases",listed as Neratinib,6.20%
same,"Constipation, % of Cases",listed as Neratinib,15.50%
same,"Death, % of Cases",listed as Neratinib,9.60%
same,"Decreased appetite, % of Cases",listed as Neratinib,11.90%
same,"Dehydration, % of Cases",listed as Neratinib,6.60%
same,"Diarrhoea, % of Cases",listed as Neratinib,61.80%
same,"Dizziness, % of Cases",listed as Neratinib,4.60%
same,"Dyspepsia, % of Cases",listed as Neratinib,4.40%
same,"Fatigue, % of Cases",listed as Neratinib,25.20%
same,"Headache, % of Cases",listed as Neratinib,5.40%
same,"Hospitalisation, % of Cases",listed as Neratinib,5.30%
same,"Muscle spasms, % of Cases",listed as Neratinib,4.20%
same,"Nausea, % of Cases",listed as Neratinib,29.70%
same,"Off label use, % of Cases",listed as Neratinib,11.60%
same,"Product dose omission issue, % of Cases",listed as Neratinib,7.80%
same,"Rash, % of Cases",listed as Neratinib,5.00%
same,"Vomiting, % of Cases",listed as Neratinib,13.80%
same,"Weight decreased, % of Cases",listed as Neratinib,4.90%
